The text below walks through data of PMC4971421, “Redox-Dependent Modulation of T-Type Ca^2+ Channels in Sensory Neurons Contributes to Acute Anti-Nociceptive Effect of Substance P” (Antioxidants & Redox Signaling, 2016).

Experiment [1] concerns small-diameter DRG neurons. Kind of experiment: DRG neuron excitability, perforated patch current clamp. It counts as cell-based, rat. As to the method:
To knock down CaV3.2, DRGs were dissociated as described ([13]); immediately after dissociation, DRG pellets were resuspended in 900 μl DMEM (without GlutaMax I, serum or antibiotics), to which a mixture of 9 μl Lipofectamine RNAiMAX (Invitrogen) and either a mix of three anti-Cacna1h Stealth siRNAs (RSS350285, RSS350286, RSS350287; Life Technologies; 200 nM each) or a scrambled control oligo (Stealth RNAi™ siRNA Negative Control; Life Technologies; 200 nM) were added immediately before resuspension. Cultures were than plated in 50 μl droplets onto glass coverslips that were coated with poly-D-lysine and incubated for 5–6 h; the transfection media were then replaced with full DRG culture medium. Patch-clamp recordings were conducted 24–48 h after the transfection. The following primers were used for reverse transcription polymerase chain reaction (RT-PCR) analysis: • Cacna1h sense: 5′-[…]-3′ • Cacna1h AS: 5′-[…]-3′ • Gapdh sense: 5′-[…]-3′ • Gapdh AS: 5′-[…]-3′
Neuronal excitability was studied using the amphotericin B-perforated patch-clamp current technique ([13]). The extracellular solution contained the following (in mM): 160 NaCl, 2.5 KCl, 5 CaCl2, 1 MgCl2, 10 HEPES, and 8 Glucose. The intracellular solution contained the following (in mM): 145 KCl, 15 NaCl, 5 MgCl2, 10 HEPES, and 250 μg/ml Amphotericin B. The access resistance was typically within […]. APs were generated by an injection of 200 pA current for 1 s from a holding current of 0 pA. Rheobase was determined from a train of current steps from 0 to 400 pA delivered in 20-pA increments. Current clamp recordings were sampled at 12.5 kHz. Bridge balance adjustments were not applied, since only relative changes in Erest, AP number, and rheobase were investigated.

For experiment [2], the system named is rat hind paw. Nature of the experiment: Cotton swab test (gentle touch). The following applies: 50 μl; 0.5 nmol/site; 8 min after injection. It counts as in vivo. As to the method: For measurement of sensitivity to gentle touch and mechanical hyperalgesia, two methods were used. (i) Cotton swab test was performed as previously described ([53]). Briefly, rats were allowed to acclimate in a cage with a wire mesh bottom for at least 30 min and then were manually probed with a “cotton swab” pulled from a Q-tip (to approximately three times the original size). A swab was applied in a sweeping motion underneath the rats’ paws, and the withdrawal responses were recorded. Five sweeps were applied in each test, with at least 10 s between each sweep; withdrawal score was calculated as a percentage of positive responses. (ii) The von Frey test was performed using a calibrated range of filaments with different bending forces (2, 4, 6, 8, 10, and 15 g; Stoelting Co.). A single filament was applied perpendicularly to the plantar surface of the hind paw for five times, with an interval of 5 s, and it was scored for withdrawal responses. Each force was probed five times, the number of withdrawals out of five trials was counted, and the percentage of withdrawal responses was calculated. Both types of assays were performed 8 min after the hind-paw drug injection.

For experiment [3], the system named is L-type VGCCs. The following applies: 1 μM; cited from earlier work. The method, then: The T-type Ca^2+ current is an important regulator of sensory neuron excitability ([10], [17], [18], [20], [23], [24], [51], [71], [75]). […] Z944 (1 μM) inhibited LVA curren ...
Experiment [4] concerns N-type VGCCs. The following applies: 1 μM; cited from earlier work.

Turning to `CC(C)(C)NC(=O)CN1CCC(CNC(=O)c2cc(F)cc(Cl)c2)CC1` [Z944, N-[[1-[2-(tert-butylamino)-2-oxoethyl]piperidin-4-yl]methyl]-3-chloro-5-fluorobenzamide], in experiment [1], the “AP amplitude or duration” value is reported as “without significantly affecting” and the “resting membrane potential (Erest)” value is on record as “hyperpolarized”. In addition, the “action potential (AP) firing” value in experiment [1] (200 pA for 1 s) is reported as “decreased”. Also, the “effects of BK on the rheobase and the AP number when co-applied with BK” value in experiment [1] (BK 250 nM) was “completely reversed”. Also, the rheobase result in experiment [1] (current steps 0–400 pA in 20-pA increments) is listed as “significantly increased”. The “small DRG neuron excitability” value in experiment [1] (perforated current clamp) was “decreased”. Moreover, in experiment [1] (siRNA against Cacna1h), the “effect on Erest, AP number, or rheobase in Cacna1h knocked-down neurons” value is on record as “neither Z994 nor ST101 produced any significant effect”. Moreover, the “sensitivity to light touch, cotton swab assay” value in experiment [2] is listed as “produced a similar effect”. In addition, in experiment [3], the “effect on L-type VGCCs” value is “no significant effect”. Also, the “effect on N-type VGCCs” value in experiment [4] is given as “no significant effect”.
